{"source": "patent US20250328351A1", "about": "“CARBONIC ANHYDRASE INHIBITORS AND ANTIBIOTICS AGAINST MULTIDRUG RESISTANT BACTERIA” (Purdue Research Foundation, priority 2018, published 2025)", "type_in_all_cases": "cell-based", "key": {"[1]": {"system": "Enterococcus faecalis S613 HM-334", "test": "MIC, broth microdilution (CLSI)", "settings": "Enterococcus faecalis, read-out: MIC"}, "[2]": {"system": "Enterococcus fecalis Strain SF24413 NR31971", "test": "MIC, broth microdilution (CLSI)", "settings": "Enterococcus, TSB, read-out: MIC", "method": "(§1) The minimum inhibitory concentrations (MICs) of the compounds and control drugs were determined using the broth microdilution method, according to guidelines outlined by the Clinical and Laboratory Standards Institute (CLSI). Enterococci strains were grown aerobically overnight on tryptone soya agar plates at 37° C., afterwards a bacterial solution equivalent to 0.5 McFarland standard was prepared and diluted in tryptone soy broth (TSB) to achieve a bacterial concentration of about 5×10^5 CFU/mL and seeded in 96-well well plates. Compounds and control drugs were added in the first row of the 96-well plates and serially diluted along the plates. Plates were then incubated aerobically at 37° C. for 18-20 hours. MICs reported in Table 1 are the minimum concentration of the compounds/control drugs that could inhibit completely the visual growth of the bacteria."}, "[3]": {"system": "Enterococcus faecium Patient #3-1 NR-31912", "test": "MIC, broth microdilution (CLSI)", "settings": "Enterococcus faecium, TSB, read-out: MIC", "method": "as §1"}, "[4]": {"system": "Enterococcus fecalis Strain SF 28073 - NR31972", "test": "MIC, broth microdilution (CLSI)", "settings": "Enterococcus, TSB, read-out: MIC", "method": "as §1"}, "[5]": {"system": "Mutant-6 of Enterococcus fecalis NR 31975", "test": "microbe, parasite or virus in culture"}, "[6]": {"system": "Bifidobacterium breve JCP7499 HM 1120", "test": "MIC against human normal gut microbiota", "settings": "JCP7499HM1120, Table 3, BHIS broth, anaerobic, 48 hours, read-out: MIC", "how_it_was_run": "(§2)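 Bifidobacterium and Bacteroides were pre-grown on BHIS agar (hemin, vitamin K, L-cysteine) anaerobically, Lactobacillus on MRS agar under 5% CO2, each 48 h at 37° C. Inocula of ~5×10^5 CFU/ml in BHIS or MRS broth were exposed to serial compound dilutions for 48 h under the same conditions.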"}, "[7]": {"system": "Lactobacillus casei ATCC 334", "test": "MIC against human normal gut microbiota", "settings": "Lacticaseibacillus casei, ATCC334; Table 3; MRS broth, 5% CO2, 48 hours", "how_it_was_run": "as §2"}, "[8]": {"system": "Lactobacillus gasseri EX336960VC03 HM-400", "test": "MIC against human normal gut microbiota", "settings": "Table 3, MRS broth, 5% CO2, 48 hours", "how_it_was_run": "as §2"}, "[9]": {"system": "Bacteroides fragilis CL07T00C01 HM-709", "test": "MIC against human normal gut microbiota", "settings": "Table 3, BHIS broth, anaerobic, 48 hours, read-out: MIC", "how_it_was_run": "as §2"}, "[10]": {"system": "Bacteroides dorei CL02T12C06 HM-719", "test": "MIC against human normal gut microbiota", "settings": "Phocaeicola dorei; Table 3; BHIS broth, anaerobic, 48 hours; read-out: MIC", "how_it_was_run": "as §2"}, "[11]": {"system": "Bifidobacterium longum subsp. Longum 44B HM 845", "test": "MIC against human normal gut microbiota", "settings": "Table 3, BHIS broth, anaerobic, 48 hours", "how_it_was_run": "as §2"}, "[12]": {"system": "Mutant-8 of Enterococcus fecalis NR 31975", "test": "microbe, parasite or virus in culture"}, "[13]": {"system": "Mutant-7 of Enterococcus fecalis NR 31975", "test": "microbe, parasite or virus in culture"}, "[14]": {"system": "Mutant-9 of Enterococcus fecalis NR 31975", "test": "microbe, parasite or virus in culture"}, "[15]": {"system": "Enterococcus faecium Patient #2-1 - NR-31909", "test": "MIC, broth microdilution (CLSI)", "settings": "Enterococcus faecium, TSB, read-out: MIC"}, "[16]": {"system": "Enterococcus fecalis Strain SF 24397 NR31970", "test": "MIC, broth microdilution (CLSI)", "settings": "Enterococcus, TSB, read-out: MIC"}, "[17]": {"system": "Enterococcus faecium E417 - HM-965", "test": "MIC, broth microdilution (CLSI)", "settings": "Enterococcus faecium, E417HM965, Table 1; TSB; read-out: MIC"}, "[18]": {"system": "Mutant-12 of Enterococcus fecalis NR 31975", "test": "microbe, parasite or virus in culture"}, "[19]": {"system": "Enterococcus fecalis Strain MMH594 - NR31975", "test": "microbe, parasite or virus in culture", "settings": "Enterococcus, Table 4; Wild-type E. fecalis NR 31975", "method": "as §1"}, "[20]": {"system": "Mutant-14 of Enterococcus fecalis NR 31975", "test": "microbe, parasite or virus in culture"}}, "note": "Where two headings read alike, the source gives them in different places.", "data": [{"compound": "CC(C)=CC(=O)Nc1nnc(S(N)(=O)=O)s1", "note": "[CAI0016, 3-Methyl-N-(5-sulfamoyl-1,3,4-thiadiazol-2-yl)but-2-enamide]", "values": [{"measurement": "MIC", "setting": "[1]; S613HM334, Table 1, TSB", "value": 0.5, "unit": "µg/mL"}, {"measurement": "MIC", "setting": "[1]; S613HM334, Table 6, TSB in presence of 4% human serum albumin", "value": "> 256", "unit": "µg/mL"}, {"measurement": "MIC", "setting": "[1]; S613HM334, Table 7, TSB", "value": 0.25, "unit": "µg/mL"}, {"measurement": "MIC", "setting": "[2]; Table 1", "value": 0.5, "unit": "µg/mL"}, {"measurement": "MIC", "setting": "[2]; Table 7", "value": 0.5, "unit": "µg/mL"}, {"measurement": "MIC", "setting": "[3]; Table 1", "value": 1, "unit": "µg/mL"}, {"measurement": "MIC", "setting": "[3]; Table 7", "value": 0.5, "unit": "µg/mL"}, {"measurement": "MIC", "setting": "[4]; Table 1", "value": 0.5, "unit": "µg/mL"}, {"measurement": "MIC", "setting": "[4]; Table 7", "value": 0.5, "unit": "µg/mL"}, {"measurement": "MIC", "setting": "[5]", "value": 16, "unit": "µg/mL"}, {"measurement": "MIC", "setting": "[6]", "value": "> 64", "unit": "µg/mL"}, {"measurement": "MIC", "setting": "[7]", "value": "> 64", "unit": "µg/mL"}, {"measurement": "MIC", "setting": "[8]", "value": "> 64", "unit": "µg/mL"}, {"measurement": "MIC", "setting": "[9]", "value": "> 64", "unit": "µg/mL"}, {"measurement": "MIC", "setting": "[10]", "value": "> 64", "unit": "µg/mL"}, {"measurement": "MIC", "setting": "[11]", "value": "> 64", "unit": "µg/mL"}, {"measurement": "MIC", "setting": "[12]", "value": 4, "unit": "µg/mL"}, {"measurement": "MIC", "setting": "[13]", "value": 4, "unit": "µg/mL"}, {"measurement": "MIC", "setting": "[14]", "value": 4, "unit": "µg/mL"}, {"measurement": "MIC", "setting": "[15]; Table 1", "value": 0.5, "unit": "µg/mL"}, {"measurement": "MIC", "setting": "[15]; Table 7", "value": 0.25, "unit": "µg/mL"}, {"measurement": "MIC", "setting": "[16]; Table 1", "value": 0.5, "unit": "µg/mL"}, {"measurement": "MIC", "setting": "[16]; Table 7", "value": 0.25, "unit": "µg/mL"}, {"measurement": "MIC", "setting": "[17]", "value": 0.25, "unit": "µg/mL"}, {"measurement": "MIC", "setting": "[18]", "value": 8, "unit": "µg/mL"}, {"measurement": "MIC", "setting": "[19]", "value": 1, "unit": "µg/mL"}, {"measurement": "MIC", "setting": "[20]", "value": 4, "unit": "µg/mL"}]}]}
